Source: US8178524B2, “Noribogaine in the treatment of pain and drug addiction” (Demerx, Inc., priority 1997, dated 2012)

Biological target: T1, μ-opioid receptor (Rattus norvegicus, UniProt P33535)
T1 construct: from tissue; host or cells: rat (Sprague Dawley) thalamic membranes
Assay: Stimulation of [35S]GTPγS binding to rat thalamic membranes (receptor activation of G proteins)
Assay type: biochemical, Rat (Sprague Dawley)

T1 sequence (P33535 whole entry): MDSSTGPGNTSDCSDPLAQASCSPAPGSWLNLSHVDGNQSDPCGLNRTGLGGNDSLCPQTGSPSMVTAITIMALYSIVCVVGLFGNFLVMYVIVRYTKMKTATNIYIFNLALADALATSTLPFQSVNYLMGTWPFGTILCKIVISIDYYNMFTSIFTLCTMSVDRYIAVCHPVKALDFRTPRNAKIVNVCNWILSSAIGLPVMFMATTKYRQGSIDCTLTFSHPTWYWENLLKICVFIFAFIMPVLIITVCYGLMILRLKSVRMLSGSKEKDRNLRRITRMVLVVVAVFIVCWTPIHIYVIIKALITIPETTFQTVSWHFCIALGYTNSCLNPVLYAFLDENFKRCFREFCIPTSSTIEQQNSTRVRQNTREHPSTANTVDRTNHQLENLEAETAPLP

CC[C@H]1C[C@H]2C[C@H]3c4[nH]c5ccc(OC)cc5c4CCN(C2)C13 [Ibogaine]
stimulation of [35S]GTPγS binding (even at concentrations above 100 μM): weak stimulation

CC[C@H]1C[C@H]2C[C@H]3c4[nH]c5ccc(O)cc5c4CCN(C2)C13 [Noribogaine, 12-hydroxyibogamine]
agonist efficacy at the μ-opioid receptor (conclusion from [35S]GTPγS binding results): full agonist
level of [35S]GTPγS binding stimulated vs maximal number of binding sites occupied after DAMGO stimulation (relative to DAMGO stimulation of G proteins): in close agreement
